Literature values, collected in patent US20070191305A1, “Chromone complexes” (priority 2004, published 2007).

Key:
[1] = over the entire pH range

Row | Compound | antioxidant activity amongst the hydroxyflavones investigated [1] | cell differentiation (keratinocyte cultures) | lipid production (keratinocyte cultures)
1 | O=c1c(O)c(-c2ccc(O)c(O)c2)oc2cc(O)cc(O)c12 [Quercetin, 3,3′,4′,5,7-pentahydroxyflavone] | greatest activity |  | 
2 | O=C1CCOc2ccccc21 [Example 4-chromanone, 4-chromanone] |  | promotes cell differentiation | stimulates lipid production
